The source of these data is patent US9615577B2, “Herbicidally active cyclic dione compounds, or derivatives therefor, substituted by a phenyl which has an alkynyl-containing substituent” (Syngenta Limited, priority 2012, dated 2017).

Common to all, as to type: in vivo
In assay [1] the test system is Glycine max (GLXMA, soybean). In words: Test 1B glasshouse assay for herbicidal activity, pre-emergence. As to conditions: 480 h, 20 DAA, read-out: percentage phytotoxicity GLXMA. Here is the method: (§1) Seeds of a variety of monocotyledonous and dicotyledonous test plants are sown in standard soil in pots. The plants are cultivated for one day (for pre-emergence) or for about 12 days (range=10-13 days) (for post-emergence) under controlled conditions in a glasshouse (warm climate species at 24/18° C., cool climate species at 20/16° C., both at day/night; 16 hours light; 65% humidity).
(§2) An “instant formulation”, known as the “IF50”, containing 50 g/liter (i.e. 5% w/v) of the “technical” (i.e. unformulated) active ingredient is prepared by dissolving the active ingredient in a mixture of organic solvents and emulsifier, details of which are provided in the Table below. This IF50 is then mixed with a small, variable amount of acetone to aid dissolution, before addition of a 0.2% v/v aqueous solution of the adjuvant X-77 (which is a mixture of alkyl aryl polyoxyethylene glycols and free fatty acids in isopropanol, CAS Registry number 11097-66-8), as the aqueous diluent, to form an aqueous spray solution which contains a predetermined concentration of the active ingredient (which varies depending on the application rate of the active ingredient to the plants) and 0.2% v/v of the adjuvant X-77. This aqueous spray solution is then sprayed onto the plants, after one day's cultivation (for pre-emergence) or after about 12 days' cultivation (for post-emergence).
(§3) The test plants are then grown on, in a glasshouse (greenhouse) under controlled conditions (at either 24/18° C. or 20/16° C. (day/night) as mentioned above; 16 hours light; 65% humidity) and are watered twice daily. Either 15 days after application of the herbicide (15 DAA) (for post-emergence), or 20 days after application of the herbicide (20 DAA) (for pre-emergence), the test plants are evaluated visually, and an assessed percentage phytotoxicity score is given for each herbicidal application on each plant species (where 100%=total damage to plant; 0%=no damage to plant).
Warm climate crop plants: Glycine max (GLXMA, soybean).

The test system of assay [2] is Alopecurus myosuroides (ALOMY). Described as above. As to conditions: 480 h, 20 DAA, read-out: percentage phytotoxicity ALOMY. How it is done: as §1, §2, §3
(§4) Cool climate (“cool season”) grassy monocotyledonous weeds: Alopecurus myosuroides (ALOMY), Avena fatua (AVEFA), Lolium perenne (LOLPE).

In assay [3] the test system is Avena fatua (AVEFA). Described as above. As to conditions: 480 h, 20 DAA, read-out: percentage phytotoxicity AVEFA. How it is done: as §1, §2, §3, §4
Assay [4] has as its system Lolium perenne (LOLPE). Described as above. The conditions noted are these: 480 h, 20 DAA, read-out: percentage phytotoxicity LOLPE. Here is the method:
as §1, §2, §3, §4

Assay [5] relates to Digitaria sanguinalis (DIGSA). Described as above. As to conditions: 480 h, 20 DAA, read-out: percentage phytotoxicity DIGSA. A digest of the protocol: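 Pots sown in standard soil; IF50 formulation diluted in 0.2% v/v X-77 and sprayed 1 day after sowing (pre-emergence) or ~12 days (post-emergence). Glasshouse at 24/18 or 20/16 °C, 16 h light, 65% humidity. Visual % phytotoxicity (0–100) scored 20 DAA pre-emergence, 15 DAA post-emergence.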

Assay [6] concerns Beta vulgaris (BEAVA, sugar beet). Nature of the assay: Test 1B glasshouse assay for herbicidal activity, post-emergence. The conditions noted are these: 360 h; for plant injury at 30 g/ha: 30 g/ha application rate; for plant injury at 125 g/ha: 125 g/ha application rate. A digest of the protocol:
(§5)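 Plants grown in soil at 20/16° C day/night, 16 h light, 65% humidity; sprayed after 1 day (pre-emergence) or ~12 days (post-emergence) with formulated compound in 0.2% v/v X-77 adjuvant. Visual % phytotoxicity scored 20 DAA (pre) or 15 DAA (post).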

For assay [7], the system named is Brassica napus (BRSNN, rape). The assay is described as above. As to conditions: 360 h; for plant injury at 30 g/ha: 30 g/ha application rate; for plant injury at 125 g/ha: 125 g/ha application rate. A digest of the protocol:
as §5

The test system of assay [8] is Triticum aestivum (TRZAW, winter wheat). The description is as above. As to conditions: 360 h; for plant injury at 30 g/ha: 30 g/ha application rate; for plant injury at 125 g/ha: 125 g/ha application rate. The method, boiled down:
as §5

The test system of assay [9] is Alopecurus myosuroides (ALOMY). The assay is described as above. The conditions noted are these: 360 h; for pest or weed control at 30 g/ha: 30 g/ha application rate; for pest or weed control at 125 g/ha: 125 g/ha application rate. The method, boiled down: (§6)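 Potted plants sprayed with active ingredient in an emulsifiable formulation diluted in 0.2% v/v X-77, 1 day after sowing (pre-emergence) or about 12 days after (post-emergence). Glasshouse at 20/16° C day/night, 16 h light, 65% humidity. Visual percent phytotoxicity scored at 20 DAA (pre) or 15 DAA (post).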

Assay [10] has as its system Avena fatua (AVEFA). Described as above. As to conditions: 360 h; for pest or weed control at 30 g/ha: 30 g/ha application rate; for pest or weed control at 125 g/ha: 125 g/ha application rate. The method, boiled down:
as §6

For assay [11], the system named is Lolium perenne (LOLPE). The assay is described as above. As to conditions: 360 h; for pest or weed control at 30 g/ha: 30 g/ha application rate; for pest or weed control at 125 g/ha: 125 g/ha application rate. A digest of the protocol:
as §6

Assay [12] has as its system Echinochloa crus-galli (ECHCG). The assay is described as above. As to conditions: Echinochloa crus-galli; for pest or weed control at 30 g/ha: 30 g/ha application rate; for pest or weed control at 125 g/ha: 125 g/ha application rate. The method, boiled down: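 Plants grown about 12 days (10–13) in glasshouse (24/18 °C day/night, 16 h light, 65% humidity) then sprayed with IF50 formulation diluted in 0.2% v/v X-77 adjuvant at set application rates. Percent phytotoxicity scored visually 15 days after application (0 = no damage, 100 = total damage).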

Assay [13] concerns Alopecurus myosuroides (ALOMY). In words: Biological Example 2 comparative herbicidal data, post-emergence glasshouse screen. As to conditions: 312 h, read-out: Post-emergence herbicidal activities (percentage phytotoxicity) ALOMY; for pest or weed control at 15.625 g/ha: 15.625 g/ha application rate; for pest or weed control at 62.5 g/ha: 62.5 g/ha application rate; for pest or weed control at 8 g/ha: 8 g/ha application rate; for pest or weed control at 30 g/ha: 30 g/ha application rate. The method, boiled down: (§7)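 Plants grown 8 days in a glasshouse (24/16°C day/night, 14 h light, 65% humidity) were sprayed with compound in acetone/water (50:50) containing 0.5% Tween 20. They were kept under the same conditions and watered twice daily. Phytotoxicity was scored visually after 13 days (0 = no damage, 100 = total damage).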

Assay [14] concerns Setaria faberi (SETFA). Described as above. As to conditions: 312 h, read-out: Post-emergence herbicidal activities (percentage phytotoxicity) SETFA; for pest or weed control at 15.625 g/ha: 15.625 g/ha application rate; for pest or weed control at 62.5 g/ha: 62.5 g/ha application rate; for pest or weed control at 8 g/ha: 8 g/ha application rate; for pest or weed control at 30 g/ha: 30 g/ha application rate. A digest of the protocol: as §7

With `Cc1cc(C#CCl)cc(C)c1C1C(=O)C2CCC(C2)C1=O` (centres unmarked) [Compound A-6], the plant injury at 125 g/ha in assay [1] worked out at 0%. The pest or weed control at 125 g/ha in assay [2] turned out to be 60%; in [3], 40%; in assay [4] it was 80%; in assay [5] it was 100%. The plant injury at 30 g/ha in [6] and in assay [7] was 40% throughout. The results for the plant injury at 60 g/ha in assay [6] (60 g/ha application rate), in assay [7] (60 g/ha application rate) and in assay [8] (60 g/ha application rate) were 50%, 60% and 40%, respectively. The pest or weed control at 30 g/ha in assay [9] was found to be 50%; in [10], 50%; in assay [11], 40%; in assay [12] it was 90%. Further, the pest or weed control at 60 g/ha in assay [9] (60 g/ha application rate) was determined as 50%; in assay [10] (60 g/ha application rate), 60%; in assay [11] (60 g/ha application rate), 70%; in assay [12] (60 g/ha application rate), 90%. Moreover, the pest or weed control at 15.625 g/ha was found to be 70% in [13] and 90% in [14]. Also, the pest or weed control at 62.5 g/ha in assay [13] turned out to be 70%; in assay [14], 90%.
Consider `CC#Cc1cc(C)c(C2C(=O)CC(CC3CCOCC3)CC2=O)c(C)c1` (centres unmarked) [Compound A-9], for which, in assay [1], the plant injury at 125 g/ha was 10%. The pest or weed control at 125 g/ha in [2] came out at 80%; in assay [3], 80%; in [4], 100%; in [5] it was 100%. Further, the plant injury at 30 g/ha was determined as 0% in [6], 50% in assay [7] and 60% in assay [8]. Besides, the pest or weed control at 30 g/ha in assay [9] was found to be 80%; in assay [10], 70%; in assay [11], 60%; in [12], 100%. The pest or weed control at 15.625 g/ha in [13] and in assay [14] was 80% throughout. The pest or weed control at 62.5 g/ha in assay [13] and in assay [14] was 90% throughout.
In the case of `CC#Cc1cc(Cl)c(C2C(=O)C3CCC(C3)C2=O)c(OC)c1` (centres unmarked) [Compound A-12], in assay [1], the plant injury at 250 g/ha came out at 40%. The pest or weed control at 250 g/ha in [2] turned out to be 60%; in assay [3], 50%; in [4], 100%; in assay [5], 100%. The plant injury at 30 g/ha in [6] stood at 0%; in [7], 60%; in [8], 40%. In addition, the plant injury at 125 g/ha is 20% in assay [6], 80% in assay [7] and 60% in [8]. In addition, the pest or weed control at 30 g/ha stood at 10% in assay [9]; 0% in [10]; 0% in [11]; 90% in [12]; 90% in [13]; 90% in assay [14]. The pest or weed control at 125 g/ha came out at 70% in [9], 30% in [10], 70% in assay [11] and 100% in assay [12]. The pest or weed control at 8 g/ha came out at 40% in assay [13] and 50% in [14].
In the case of `CC#Cc1cc(C)c(C2C(=O)CC(c3ccccn3)CC2=O)c(C)c1` (centres unmarked) [Compound A-13], the plant injury at 250 g/ha in [1] worked out at 20%. Also, the pest or weed control at 250 g/ha in assay [2] was 80%; in assay [3], 30%; in assay [4], 100%; in assay [5] it was 100%. Also, the plant injury at 125 g/ha was 20% in assay [6], 70% in assay [7] and 30% in [8]. Moreover, the pest or weed control at 125 g/ha is 30% in assay [9], 20% in assay [10], 70% in assay [11] and 80% in assay [12]. Besides, the pest or weed control at 8 g/ha in [13] is 60%; in [14], 80%. Further, the results for the pest or weed control at 30 g/ha in assay [13] and in [14] were 70% and 90%, respectively.
